# According to paper PMC7930822, “Phase I Trial to Evaluate the Tolerance, Pharmacokinetics and Efficacy of the Broad-Spectrum ErbB Family Inhibitor Larotinib Mesylate in Patients With Advanced Solid Tumors” (Frontiers in Pharmacology, 2021):
# Structures can show the parent of a compound that is named as a salt.
# Test system: wild-type EGFR
# Assay: in vitro kinase inhibition, wild-type EGFR
# Format: biochemical
# Procedure: Larotinib mesylate (Figure 1) is a novel, potent broad-spectrum TKI with EGFR as the main target with a 50% inhibitory concentration (IC50) of 0.6 nM (data not published). […] We hypothesized that the characteristics of larotinib mesylate that facilitate simultaneous inhibition of multiple kinases may improve the tumor inhibiting effect of the drug and decrease the emergence of resistance to larotinib mesylate in solid tumor cells.
smiles,measurement,setting,value
COc1cc2ncnc(Nc3ccc(F)c(Cl)c3)c2cc1OCCCN1C[C@@H]2OCCO[C@@H]2C1 [larotinib mesylate],fold greater inhibitory activity than gefitinib,"ref Baselga and Averbuch, 2000",37 fold
same,fold greater inhibitory activity than erlotinib,"ref Moyer et al., 1997",3 fold
